Measurements from ChEMBL document CHEMBL1201862, “PubChem BioAssay data set” (2004).
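Assay format: 96-well plates, 48-hour exposure. GI50: concentration for 50% inhibition of growth.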 Calls of active or inactive are those of the source. Rule as the data show it: active = GI50 up to about 1.1 µM and inactive = higher.

Key:
Experiment in all cases: inhibition of tumour cell growth, NCI panel, 48 h
786-0 = test system: 786-0
A549 = test system: A549
ACHN = test system: ACHN
CAKI-1 = test system: CAKI-1
CCRF-CEM = test system: CCRF-CEM
COLO 205 = test system: COLO 205
DLD-1 = test system: DLD-1
DMS-114 = test system: DMS-114
DMS-273 = test system: DMS-273
EKVX = test system: EKVX
HCC 2998 = test system: HCC 2998
HCT-116 = test system: HCT-116
HCT-15 = test system: HCT-15
HL-60 = test system: HL-60
HOP-18 = test system: HOP-18
HOP-62 = test system: HOP-62
HOP-92 = test system: HOP-92
HT-29 = test system: HT-29
IGROV-1 = test system: IGROV-1
K562 = test system: K562
KM-20L2 = test system: KM-20L2
KM12 = test system: KM12
LOX IMVI = test system: LOX IMVI
LXFL 529 = test system: LXFL 529
M14 = test system: M14
M19-MEL = test system: M19-MEL
MOLT-4 = test system: MOLT-4
Malme-3M = test system: Malme-3M
NCI-H226 = test system: NCI-H226
NCI-H23 = test system: NCI-H23
NCI-H460 = test system: NCI-H460
NCI-H522 = test system: NCI-H522
OVCAR-3 = test system: OVCAR-3
OVCAR-4 = test system: OVCAR-4
OVCAR-5 = test system: OVCAR-5
OVCAR-8 = test system: OVCAR-8
RPMI-8226 = test system: RPMI-8226
RXF 393 = test system: RXF 393
SF-268 = test system: SF-268
SF-295 = test system: SF-295
SF-539 = test system: SF-539
SK-MEL-28 = test system: SK-MEL-28
SK-MEL-5 = test system: SK-MEL-5
SK-OV-3 = test system: SK-OV-3
SN12C = test system: SN12C
SNB-19 = test system: SNB-19
SNB-75 = test system: SNB-75
SNB-78 = test system: SNB-78
SW-620 = test system: SW-620
TK-10 = test system: TK-10
U-251 = test system: U-251
UACC-257 = test system: UACC-257
UACC-62 = test system: UACC-62
UO-31 = test system: UO-31
XF498 = test system: XF498
A498 = test system: A498
MCF7 = test system: MCF7
NCI/ADR-RES = test system: NCI/ADR-RES
SK-MEL-2 = test system: SK-MEL-2

With `C/C=C/C(=O)Oc1cccc2cccnc12` the GI50 (786-0) was 29.2 µM (inactive), the GI50 (A549) was 18.8 µM (inactive) and the GI50 (ACHN) was 18.2 µM (inactive). The GI50 (CAKI-1) was 32.6 µM (inactive), the GI50 (CCRF-CEM) was 3.7 µM (inactive) and the GI50 (COLO 205) was 18.6 µM (inactive). The GI50 (DLD-1) was 4.5 µM (inactive), the GI50 (DMS-114) was 4.22 µM (inactive) and the GI50 (DMS-273) was 14.6 µM (inactive). The GI50 (EKVX) was 6.85 µM (inactive), the GI50 (HCC 2998) was 20.6 µM (inactive) and the GI50 (HCT-116) was 3.76 µM (inactive). For the same compound, the GI50 (HCT-15) was 7 µM, the GI50 (HL-60) was 4.32 µM (inactive) and the GI50 (HOP-18) was 24.5 µM (inactive). The GI50 (HOP-62) was 26.7 µM (inactive), the GI50 (HOP-92) was 8.32 µM (inactive) and the GI50 (HT-29) was 19.7 µM (inactive). The GI50 (IGROV-1) was 24.6 µM (inactive), the GI50 (K562) was 6.08 µM (inactive) and the GI50 (KM-20L2) was 8.07 µM (inactive). For the same compound, the GI50 (KM12) was 16 µM (inactive), the GI50 (LOX IMVI) was 9.2 µM (inactive) and the GI50 (LXFL 529) was 4.21 µM (inactive). The GI50 (M14) was 3.79 µM (inactive), the GI50 (M19-MEL) was 12.5 µM (inactive) and the GI50 (MOLT-4) was > 20.6 µM (inactive). The GI50 (Malme-3M) was 1.45 µM (inactive), the GI50 (NCI-H226) was 25.1 µM (inactive) and the GI50 (NCI-H23) was 4.91 µM (inactive). The GI50 (NCI-H460) was 3.32 µM (inactive), the GI50 (NCI-H522) was 1.82 µM (inactive) and the GI50 (OVCAR-3) was 3.24 µM (inactive). For the same compound, the GI50 (OVCAR-4) was 4.39 µM (inactive), the GI50 (OVCAR-5) was 16.5 µM (inactive) and the GI50 (OVCAR-8) was 4.61 µM (inactive). The GI50 (RPMI-8226) was 9.73 µM (inactive), the GI50 (RXF 393) was 12.4 µM (inactive) and the GI50 (SF-268) was 3.2 µM (inactive). For the same compound, the GI50 (SF-295) was 12.1 µM (inactive), the GI50 (SF-539) was 7.83 µM (inactive) and the GI50 (SK-MEL-28) was 14.5 µM (inactive). For the same compound, the GI50 (SK-MEL-5) was 14.5 µM (inactive), the GI50 (SK-OV-3) was 32.9 µM (inactive) and the GI50 (SN12C) was 5.87 µM (inactive). For the same compound, the GI50 (SNB-19) was 48.8 µM (inactive), the GI50 (SNB-75) was 14.4 µM (inactive) and the GI50 (SNB-78) was 27.4 µM (inactive). The GI50 (SW-620) was 5.61 µM (inactive), the GI50 (TK-10) was 44.2 µM (inactive) and the GI50 (U-251) was 1.14 µM (inactive). For the same compound, the GI50 (UACC-257) was 4.62 µM (inactive), the GI50 (UACC-62) was 6.98 µM (inactive) and the GI50 (UO-31) was 6.97 µM (inactive). For the same compound, the GI50 (XF498) was 8.41 µM (inactive).
`CCCC(O)C(NC(=O)CCl)C(=O)O` (centres undefined) was tested, and the GI50 (A498) was > 100 µM (inactive), the GI50 (A549) was > 100 µM (inactive) and the GI50 (CAKI-1) was > 100 µM (inactive). The GI50 (CCRF-CEM) was > 100 µM (inactive), the GI50 (COLO 205) was > 100 µM (inactive) and the GI50 (DLD-1) was > 100 µM (inactive). For the same compound, the GI50 (DMS-114) was > 100 µM (inactive), the GI50 (DMS-273) was > 100 µM (inactive) and the GI50 (EKVX) was > 100 µM (inactive). For the same compound, the GI50 (HCC 2998) was > 100 µM (inactive), the GI50 (HCT-116) was > 100 µM (inactive) and the GI50 (HCT-15) was greater than 100 µM. For the same compound, the GI50 (HL-60) was > 100 µM (inactive), the GI50 (HOP-18) was > 100 µM (inactive) and the GI50 (HOP-62) was > 100 µM (inactive). For the same compound, the GI50 (HOP-92) was > 100 µM (inactive), the GI50 (HT-29) was > 100 µM (inactive) and the GI50 (IGROV-1) was > 100 µM (inactive). For the same compound, the GI50 (K562) was > 100 µM (inactive), the GI50 (KM-20L2) was > 100 µM (inactive) and the GI50 (KM12) was > 100 µM (inactive). The GI50 (LOX IMVI) was > 100 µM (inactive), the GI50 (M19-MEL) was > 100 µM (inactive) and the GI50 (MCF7) was > 100 µM (inactive). For the same compound, the GI50 (MOLT-4) was > 100 µM (inactive), the GI50 (Malme-3M) was > 100 µM (inactive) and the GI50 (NCI-H226) was > 100 µM (inactive). The GI50 (NCI-H23) was > 100 µM (inactive), the GI50 (NCI-H460) was > 100 µM (inactive) and the GI50 (NCI-H522) was > 100 µM (inactive). For the same compound, the GI50 (NCI/ADR-RES) was > 100 µM (inactive), the GI50 (OVCAR-3) was > 100 µM (inactive) and the GI50 (OVCAR-4) was > 100 µM (inactive). For the same compound, the GI50 (OVCAR-5) was > 100 µM (inactive), the GI50 (OVCAR-8) was > 100 µM (inactive) and the GI50 (RPMI-8226) was > 100 µM (inactive). For the same compound, the GI50 (RXF 393) was > 100 µM (inactive), the GI50 (SF-268) was > 100 µM (inactive) and the GI50 (SF-295) was > 100 µM (inactive). The GI50 (SF-539) was > 100 µM (inactive), the GI50 (SK-MEL-28) was > 100 µM (inactive) and the GI50 (SK-MEL-2) was > 100 µM (inactive). The GI50 (SK-MEL-5) was > 100 µM (inactive), the GI50 (SK-OV-3) was > 100 µM (inactive) and the GI50 (SN12C) was > 100 µM (inactive). For the same compound, the GI50 (SNB-19) was > 100 µM (inactive), the GI50 (SNB-75) was > 100 µM (inactive) and the GI50 (SNB-78) was > 100 µM (inactive). The GI50 (SW-620) was > 100 µM (inactive), the GI50 (U-251) was > 100 µM (inactive) and the GI50 (UACC-257) was > 100 µM (inactive). For the same compound, the GI50 (UACC-62) was > 100 µM (inactive), the GI50 (UO-31) was > 100 µM (inactive) and the GI50 (XF498) was > 100 µM (inactive).
